How the values were obtained:
[1] = test system: HCV replicon RNA in replicon cells (Huh-7); assay: HCV replicon assay; format: cell-based; conditions: Huh-7 replicon cells, 3 days incubation, reduction of HCV RNA (Quantigene)
Protocol: The replicon cells (Huh-7) contain replicating HCV replicon RNA, which was modified in the structural region (replacing the structural region with a neomycin resistance marker). Survival of the replicon cells under G418 selection relies on the replication of HCV RNA and subsequently expression of neomycin phosphoryltransferase. The ability of modified nucleoside libraries and compounds to suppress HCV RNA replication was determined using the Quantigene Assay Kit from Bayer. The assay measures the reduction of HCV RNA molecules in the treated cells. Replicon cells were incubated at 37° C. for 3 days in the presence of nucleoside libraries and compounds before harvested for detection. HCV subgenomic replicon cell line was provided by Dr. Bartenschlager. The assay protocol was modified based on literature procedure (V. Lohmann, F. Korner, J. O. Koch, U. Herian, L. Theilmann, R. Bartenschlager, Science, 1999, 285, 110–113).

[2] = test system: Bovine viral diarrhea virus (BVDV) (strain NADL); assay: Assay for inhibition of BVDV; format: cell-based; conditions: MDBK cells
Protocol: Bovine viral diarrhea virus (BVDV) (strain NADL) was provided by Dr. Ruben Donis and propagated in MDBK cells (ATCC). The nucleoside libraries and compounds were tested utilizing the modified protocol (V. B. Vassilev, M. S. Collett, R. O. Donis, J. Viol. 1997, 71, 471–478; S. G. Bagginski, D. C. Pevear, M. Seipel, S. C. C. Sun, C. A. Benetatos, S. K. Chunduru, C. M. Rice, M. S. Collett, Proc. Natl. Acad. Sci. U.S.A. 2000, 97, 7981–7986)

Row | Molecule | EC50 [1] | EC50 [2] | EC50 ([1]; Hepatitis C virus, 72 h) | EC50 ([2]; Bovine viral diarrhea virus isolates and strains)
1 | CN(C)Nc1ncnc2c1ncn2[C@@H]1O[C@H](CO)[C@@H](O)[C@@]1(C)O [Compound S1-12, 6-(N,N-Dimethylhydrazino)-9H-(2′-β-C-methyl-β-D-ribofuranosyl)purine] | < 10 µM | < 25 µM |  | 
2 | CON(C)c1ncnc2c1ncn2[C@@H]1O[C@H](CO)[C@@H](O)[C@@]1(C)O [Compound S1-20, 6-(N,O-Dimethylhydroxylamine)-9H-(2′-β-C-methyl-β-D-ribofuranosyl)purine] | 10 to 100 µM | > 100 µM |  | 
3 | C[C@@]1(O)[C@H](O)[C@@H](CO)O[C@H]1n1cnc2c(NNS(C)(=O)=O)ncnc21 [Compound S1-18] | < 10 µM | 25 to 100 µM |  | 
4 | COC(=O)NNc1ncnc2c1ncn2[C@@H]1O[C@H](CO)[C@@H](O)[C@@]1(C)O [Compound S1-16] | < 10 µM | 25 to 100 µM |  | 
5 | C[C@@]1(O)[C@H](O)[C@@H](CO)O[C@H]1n1cnc2c(ONC(=O)OCc3ccccc3)ncnc21 [Compound S1-22, 6-[(N-Benzyloxycarbonyl)aminoxy]-9H-(2′-β-C-methyl-β-D-ribofuranosyl)purine] | < 10 µM | > 100 µM |  | 
6 | CN(N)c1ncnc2c1ncn2[C@@H]1O[C@H](CO)[C@@H](O)[C@@]1(C)O [Compound S1-15, 6-(N^1-methylhydrazino)-9H-(2′-β-C-methyl-β-D-ribofuranosyl)purine] | < 10 µM | > 100 µM |  | 
7 | C[C@@]1(O)[C@H](O)[C@@H](CO)O[C@H]1n1cnc2c(NCCNc3ncnc4c3ncn4[C@@H]3O[C@H](CO)[C@@H](O)[C@@]3(C)O)ncnc21 [Compound S2-2, N,N′-Bis[N^6-9H-(2′-β-C-methyl-β-D-ribofuranosyl)adenin-6-yl]ethylenediamine] |  |  | 10 to 100 µM | > 100 µM
8 | C[C@@]1(O)[C@H](O)[C@@H](CO)O[C@H]1n1cnc2c(NN)ncnc21 [Compound S1-11, 6-(Hydrazinyl)-9H-(2′-β-C-methyl-β-D-ribofuranosyl)purine] | < 10 µM | 25 to 100 µM |  | 
9 | C[C@@]1(O)[C@H](O)[C@@H](CO)O[C@H]1n1cnc2c(NCCO)ncnc21 [Compound S1-9, N^6-[2-(Hydroxy)ethyl]-9H-(2′-β-C-methyl-β-D-ribofuranosyl)adenine] | 10 to 100 µM | > 100 µM |  | 
10 | CC1(C)OCC(CNc2ncnc3c2ncn3[C@@H]2O[C@H](CO)[C@@H](O)[C@@]2(C)O)O1 (stereo partly drawn) [Compound S1-8, N^6-(2,2-Dimethyl-1,3-dioxolane-4-methyl)-9H-(2′-β-C-methyl-β-D-ribofuranosyl)adenine] | > 100 µM | > 100 µM |  | 
11 | CSc1cccc(Nc2ncnc3c2ncn3[C@@H]2O[C@H](CO)[C@@H](O)[C@@]2(C)O)c1 [Compound S1-4, N^6-[3-(Methylthio)phenyl]-9H-(2′-β-C-methyl-β-D-ribofuranosyl)adenine] | > 100 µM | > 100 µM |  | 
12 | C[C@@]1(O)[C@H](O)[C@@H](CO)O[C@H]1n1cnc2c(NCCN)ncnc21 [Compound S2-1, N^6-(2-Aminoethyl)-9H-(2′-β-C-methyl-β-D-ribofuranosyl)adenine] | < 10 µM | 25 to 100 µM |  | 
13 | C[C@@]1(O)[C@H](O)[C@@H](CO)O[C@H]1n1cnc2c(NC[C@H]3CCCO3)ncnc21 [Compound S1-6, N^6-(R-Tetrahydrofurfuryl)-9H-(2′-β-C-methyl-β-D-ribofuranosyl)adenine] | > 100 µM | > 100 µM |  | 
14 | C[C@@]1(O)[C@H](O)[C@@H](CO)O[C@H]1n1cnc2c(NNC=O)ncnc21 [Compound S1-14, 6-[(N^2-formyl)hydrazino]-9H-(2′-β-C-methyl-β-D-ribofuranosyl)purine] | 10 to 100 µM | > 100 µM |  | 
15 | CC(C)(C)OC(=O)NOc1ncnc2c1ncn2[C@@H]1O[C@H](CO)[C@@H](O)[C@@]1(C)O [Compound S1-21, 6-(N-(t-Butyloxycarbonyl)aminoxy]-9H-(2′-β-C-methyl-β-D-ribofuranosyl)purine] | < 10 µM | > 100 µM |  | 
16 | C[C@@]1(O)[C@H](O)[C@@H](CO)O[C@H]1n1cnc2c(N(N)CCO)ncnc21 [Compound S1-13, 6-[N^1-(Hydroxyethyl)hydrazino]-9H-(2′-β-C-methyl-β-D-ribofuranosyl)purine] | < 10 µM | > 100 µM |  | 
17 | CC(=O)NNc1ncnc2c1ncn2[C@@H]1O[C@H](CO)[C@@H](O)[C@@]1(C)O [Compound S1-17, 6-[N^2-(Acetyl)hydrazino]-9H-(2′-β-C-methyl-β-D-ribofuranosyl)purine] | < 10 µM | < 25 µM |  | 
18 | CCOc1ccccc1CNc1ncnc2c1ncn2[C@@H]1O[C@H](CO)[C@@H](O)[C@@]1(C)O [Compound S1-7, N^6-(2-Ethoxybenzyl)-9H-(2′-β-C-methyl-β-D-ribofuranosyl)adenine] | 10 to 100 µM | > 100 µM |  | 
19 | C[C@@]1(O)[C@H](O)[C@@H](CO)O[C@H]1n1cnc2c(NO)ncnc21 [Compound S1-19, 6-Hydroxyamino-9H-(2′-β-C-methyl-β-D-ribofuranosyl)purine] | < 10 µM | 25 to 100 µM |  | 
20 | N^6-(2-Phenylpropyl)-9H-(2′-β-C-methyl-β-D-ribofuranosyl)adenine [Compound S1-5] | > 100 µM | > 100 µM |  | 

From US7217815B2, “2-beta -modified-6-substituted adenosine analogs and their use as antiviral agents” (Valeant Pharmaceuticals North America, priority 2002, dated 2007)
